Our source for the EC50 values is US8741906B2 (priority 2011, dated 2014).

The target of assay [1] is T1, human CB1 receptors (Homo sapiens, UniProt P21554).
T1 construct: expressed in transfected cells; host or cells: CHO cells
Kind of assay: functional cAMP assay, human CB1. The class given is cell-based. The procedure, abridged:
(§1)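 CHO cells expressing human CB1 or CB2 were preincubated 30 min at 30 °C in Krebs Ringer bicarbonate with 1 mM IBMX, then exposed to compound 30 min at 30 °C. cAMP quantified by TR-FRET competition (Alexa700 antibody/ruthenium-cAMP) against a 10 μM–0.13 nM standard curve; EC50 derived.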

The target of assay [2] is T2, human CB2 receptors (Homo sapiens, UniProt P34972).
T2 construct: expressed in transfected cells; host or cells: CHO cells
Kind of assay: functional cAMP assay, human CB2. The class given is cell-based. An outline of the steps: as §1
A general note: Changes in cAMP serve as a functional read-out for many G protein-coupled receptors.

[3] abbreviates: CHO cells expressing human CB1, cAMP, read-out: human CB1 EC50.
The mark [4] stands for this setting: CHO cells expressing human CB2, cAMP, read-out: human CB2 EC50.

Like-named read-outs stand apart in the source and are kept apart here.

For orientation: EC50 means the midpoint of the concentration-response curve.

T2 sequence (P34972 whole entry): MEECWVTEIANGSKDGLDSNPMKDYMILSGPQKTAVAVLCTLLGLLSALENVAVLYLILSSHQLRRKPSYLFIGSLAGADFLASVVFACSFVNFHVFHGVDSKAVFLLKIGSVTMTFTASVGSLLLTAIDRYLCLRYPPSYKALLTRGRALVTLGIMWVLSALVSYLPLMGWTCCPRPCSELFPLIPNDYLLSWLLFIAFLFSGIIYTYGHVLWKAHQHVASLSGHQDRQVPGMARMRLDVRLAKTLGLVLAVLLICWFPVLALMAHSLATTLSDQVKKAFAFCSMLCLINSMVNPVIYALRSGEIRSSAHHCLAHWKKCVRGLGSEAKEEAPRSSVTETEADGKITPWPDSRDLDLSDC
T1 sequence (P21554 whole entry): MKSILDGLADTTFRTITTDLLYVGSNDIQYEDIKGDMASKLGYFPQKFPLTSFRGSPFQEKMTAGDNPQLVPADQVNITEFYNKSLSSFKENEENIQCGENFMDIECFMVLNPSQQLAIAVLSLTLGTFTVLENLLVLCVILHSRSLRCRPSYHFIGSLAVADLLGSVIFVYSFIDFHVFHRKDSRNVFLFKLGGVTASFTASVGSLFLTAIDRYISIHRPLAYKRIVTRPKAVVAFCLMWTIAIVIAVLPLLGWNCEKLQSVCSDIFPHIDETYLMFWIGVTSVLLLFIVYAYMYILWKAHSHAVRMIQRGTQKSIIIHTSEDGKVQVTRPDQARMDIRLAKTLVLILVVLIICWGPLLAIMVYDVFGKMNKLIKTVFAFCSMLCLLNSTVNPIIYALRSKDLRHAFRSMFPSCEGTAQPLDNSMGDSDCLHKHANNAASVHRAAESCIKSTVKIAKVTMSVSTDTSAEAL

In the case of `Cn1nnnc1Cn1nnc2c(N3CCC(O)C3)nc(C(C)(C)C)nc21` (stereo not drawn) [Example 220, 1-(5-tert-butyl-3-((1-methyl-1H-tetrazol-5-yl)methyl)-3H-[1,2,3]triazolo[4,5-d]pyrimidin-7-yl)pyrrolidin-3-ol], the values for the EC50 in assay [1] and in assay [2] were more than 10 µM and 0.0047 µM, respectively.

Regarding `COc1ccccc1Cn1nnc2c(N3CCC(F)(F)C3)nc(C(C)(C)C)nc21` [Example 81, 5-tert-Butyl-7-(3,3-difluoro-pyrrolidin-1-yl)-3-(2-methoxy-benzyl)-3H-[1,2,3]triazolo[4,5-d]pyrimidine], the figures for the EC50 in assay [1] (setting [3]) and in assay [2] (setting [4]) were 0.0689 µM and 0.0001 µM, respectively.

With `CC(C)(C)c1nc(N2CC[C@](C)(O)C2)c2nnn(CCC(F)(F)F)c2n1` [Example 229-a, (S)-1-(5-tert-butyl-3-(3,3,3-trifluoropropyl)-3H-[1,2,3]triazolo[4,5-d]pyrimidin-7-yl)-3-methylpyrrolidin-3-ol], the EC50 was more than 10 µM in assay [1] (setting [3]) and 0.0304 µM in assay [2] (setting [4]).

As to `CC(C)(C)c1nc(N2CCC(F)(F)C2)c2nnn(Cc3ccccc3Br)c2n1` [Example 79, 3-(2-Bromo-benzyl)-5-tert-butyl-7-(3,3-difluoro-pyrrolidin-1-yl)-3H-[1,2,3]triazolo[4,5-d]pyrimidine], the EC50 in assay [1] (setting [3]) came to 0.0823 µM; in assay [2] (setting [4]), 0.0001 µM.

For the molecule `CC(C)(C)c1nc(N2CCC(F)(F)C2)c2nnn(CC(=O)c3ccccc3Cl)c2n1` [Example 110, 2-[5-tert-Butyl-7-(3,3-difluoro-pyrrolidin-1-yl)-[1,2,3]triazolo[4,5-d]pyrimidin-3-yl]-1-(2-chloro-phenyl)-ethanone], the EC50 is 0.25 µM in assay [1] (setting [3]) and 0.0002 µM in assay [2] (setting [4]).

Regarding `CC(C)(C)c1nc(N2CCC(F)(F)C2)c2nnn(Cc3ccc(F)cc3Cl)c2n1` [Example 71, 5-tert-Butyl-3-(2-chloro-4-fluoro-benzyl)-7-(3,3-difluoro-pyrrolidin-1-yl)-3H-[1,2,3]triazolo[4,5-d]pyrimidine], the values for the EC50 in assay [1] (setting [3]) and in assay [2] (setting [4]) were more than 10 µM and 0.0004 µM, respectively.

Turning to `CC(C)(C)c1nc(N2CCC(F)(F)C2)c2nnn(CCc3ccccc3)c2n1` [Example 84, 5-tert-Butyl-7-(3,3-difluoro-pyrrolidin-1-yl)-3-phenethyl-3H-[1,2,3]triazolo[4,5-d]pyrimidine], the EC50 in assay [1] (setting [3]) was determined as 0.451 µM; in assay [2] (setting [4]), 0.0012 µM.

For the molecule `CC(C)(C)c1nc(N2CCC(F)(F)C2)c2nnn(CC(O)c3ccccc3)c2n1` (stereo not drawn) [Example 88, 2-[5-tert-Butyl-7-(3,3-difluoro-pyrrolidin-1-yl)-[1,2,3]triazolo[4,5-d]pyrimidin-3-yl]-1-phenyl-ethanol], the EC50 in assay [1] (setting [3]) is 0.391 µM; in assay [2] (setting [4]), 0.0009 µM.

Take `CC(C)(C)c1nc(OC2COC2)c2nnn(Cc3ccccc3Cl)c2n1` [Example 206, 5-tert-Butyl-3-(2-chloro-benzyl)-7-(oxetan-3-yloxy)-3H-[1,2,3]triazolo[4,5-d]pyrimidine]: the EC50 is more than 10 µM in assay [1] (setting [3]) and 0.0113 µM in assay [2] (setting [4]).

Take `CC(C)(C)c1nc(N2CCC(F)(F)C2)c2nnn(Cc3ccc(Cl)cc3Cl)c2n1` [Example 68, 5-tert-Butyl-3-(2,4-dichloro-benzyl)-7-(3,3-difluoro-pyrrolidin-1-yl)-3H-[1,2,3]triazolo[4,5-d]pyrimidine]: the EC50 in assay [1] (setting [3]) was more than 10 µM; in assay [2] (setting [4]), 0.0007 µM.

With `CC(C)(C)c1nc(N2CCC(O)C2)c2nnn(Cc3ccccc3Cl)c2n1` (stereo not drawn) [Example 218, 1-(5-tert-butyl-3-(2-chlorobenzyl)-3H-[1,2,3]triazolo[4,5-d]pyrimidin-7-yl)pyrrolidin-3-ol], the EC50 in assay [1] (setting [3]) was more than 10 µM; in assay [2] (setting [4]) it was 0.0005 µM.

`CC(C)(C)c1nc(OC2CCCC2)c2nnn(Cc3ccccc3Cl)c2n1` [Example 212, 5-tert-Butyl-3-(2-chloro-benzyl)-7-cyclopentyloxy-3H-[1,2,3]triazolo[4,5-d]pyrimidine]: the concentration giving a half-maximal response (EC50) in assay [1] (setting [3]) was more than 10 µM; in assay [2] (setting [4]) it was 0.022 µM.

With `Cn1nccc1C1CCCN1c1nc(C(C)(C)C)nc2c1nnn2Cc1ccccc1Cl` (stereo not drawn) [Example 201, 5-tert-Butyl-3-(2-chloro-benzyl)-7-[2-(2-methyl-2H-pyrazol-3-yl)-pyrrolidin-1-yl]-3H-[1,2,3]triazolo[4,5-d]pyrimidine], the half-maximal effective concentration (EC50) in assay [1] (setting [3]) is more than 10 µM; in assay [2] (setting [4]), 0.0657 µM.

Consider `Cc1cc(C2CCCN2c2nc(C(C)(C)C)nc3c2nnn3Cc2ccccc2Cl)on1` (stereo not drawn) [Example 202, 5-tert-Butyl-3-(2-chloro-benzyl)-7-[2-(3-methyl-isoxazol-5-yl)-pyrrolidin-1-yl]-3H-[1,2,3]triazolo[4,5-d]pyrimidine], for which the EC50 was more than 10 µM in assay [1] (setting [3]) and 0.0868 µM in assay [2] (setting [4]).

`Cn1nncc1Cn1nnc2c(N3CC[C@H](O)[C@@H]3CO)nc(C(C)(C)C)nc21` [Example 171, (2S,3S)-1-[5-tert-Butyl-3-(3-methyl-3H-[1,2,3]triazol-4-ylmethyl)-3H-[1,2,3]triazolo[4,5-d]pyrimidin-7-yl]-2-hydroxymethyl-pyrrolidin-3-ol]: the figures for the EC50 in assay [1] (setting [3]) and in assay [2] (setting [4]) were more than 10 µM and 0.0542 µM, respectively.

Take `Cc1noc(Cn2nnc3c(N4CC(F)(F)C(F)(F)C4)nc(C(C)(C)C)nc32)n1` [Example 174, 5-tert-Butyl-3-(3-methyl-[1,2,4]oxadiazol-5-ylmethyl)-7-(3,3,4,4-tetrafluoro-pyrrolidin-1-yl)-3H-[1,2,3]triazolo[4,5-d]pyrimidine]: the EC50 in assay [1] (setting [3]) was more than 10 µM; in assay [2] (setting [4]) it was 0.002 µM.

On to `CC(C)(C)c1nc(N2CCC(F)(F)C2)c2nnn(CC3CCCCC3)c2n1` [Example 64, 5-tert-Butyl-3-cyclohexylmethyl-7-(3,3-difluoro-pyrrolidin-1-yl)-3H-[1,2,3]triazolo[4,5-d]pyrimidine], for which the EC50 in assay [1] (setting [3]) is more than 10 µM; in assay [2] (setting [4]), 0.0023 µM.

Regarding `CC(C)(C)c1nc(N2CC[C@H](O)C2)c2nnn(Cc3ccccc3Cl)c2n1` [Example 26, (S)-1-[5-tert-Butyl-3-(2-chloro-benzyl)-3H-[1,2,3]triazolo[4,5-d]pyrimidin-7-yl]-pyrrolidin-3-ol], the figures for the EC50 in assay [1] (setting [3]) and in assay [2] (setting [4]) were 0.866 µM and 0.0011 µM, respectively.

On to `CC1CCN(c2nc(C(C)(C)C)nc3c2nnn3Cc2ccccc2Cl)C1` (stereo not drawn) [Example 198, 5-tert-Butyl-3-(2-chloro-benzyl)-7-(3-methyl-pyrrolidin-1-yl)-3H-[1,2,3]triazolo[4,5-d]pyrimidine], for which the EC50 came out at 1.71 µM in assay [1] (setting [3]) and 0.0128 µM in assay [2] (setting [4]).

As to `C[C@H](c1ccccc1Cl)n1nnc2c(N3CCC(F)(F)C3)nc(C(C)(C)C)nc21` [Example 86], the EC50 in assay [1] (setting [3]) was determined as 0.371 µM; in assay [2] (setting [4]), 0.0004 µM.

Turning to `COC1CN(c2nc(C(C)(C)C)nc3c2nnn3Cc2ccccc2Cl)C1` [Example 15, 5-tert-Butyl-3-(2-chloro-benzyl)-7-(3-methoxy-azetidin-1-yl)-3H-[1,2,3]triazolo[4,5-d]pyrimidine], the results for the EC50 in assay [1] (setting [3]) and in assay [2] (setting [4]) were 0.97 µM and 0.0032 µM, respectively.

Regarding `C[C@@H]1CC[C@@H](C)N1c1nc(C(C)(C)C)nc2c1nnn2Cc1ccccc1Cl` [Example 25, 5-tert-Butyl-3-(2-chloro-benzyl)-7-((2R,5R)-2,5-dimethyl-pyrrolidin-1-yl)-3H-[1,2,3]triazolo[4,5-d]pyrimidine], the EC50 in assay [1] (setting [3]) was determined as 0.919 µM; in assay [2] (setting [4]) it was 0.031 µM.

`CC(C)(C)c1nc(OC2CCC2)c2nnn(Cc3ccccc3Cl)c2n1` [Example 205, 5-tert-Butyl-3-(2-chloro-benzyl)-7-cyclobutoxy-3H-[1,2,3]triazolo[4,5-d]pyrimidine]: the EC50 is more than 10 µM in assay [1] (setting [3]) and 0.0122 µM in assay [2] (setting [4]).

Consider `C[C@@H](c1ccccc1Cl)n1nnc2c(N3CCC(F)(F)C3)nc(C(C)(C)C)nc21` [Example 87], for which the EC50 stood at 0.27 µM in assay [1] (setting [3]) and 0.001 µM in assay [2] (setting [4]).

As to `Cc1c(Cn2nnc3c(N4CC[C@H](O)C4)nc(C(C)(C)C)nc32)ccc[n+]1[O-]` [Example 162, (S)-1-[5-tert-Butyl-3-(2-methyl-1-oxy-pyridin-3-ylmethyl)-3H-[1,2,3]triazolo[4,5-d]pyrimidin-7-yl]-pyrrolidin-3-ol], the EC50 in assay [1] (setting [3]) is more than 10 µM; in assay [2] (setting [4]) it was 0.0277 µM.

For the molecule `CC1(O)CN(c2nc(C(C)(C)C)nc3c2nnn3Cc2ccccc2Cl)C1` [Example 14, 1-[5-tert-Butyl-3-(2-chloro-benzyl)-3H-[1,2,3]triazolo[4,5-d]pyrimidin-7-yl]-3-methyl-azetidin-3-ol], the EC50 in assay [1] (setting [3]) is 1.23 µM; in assay [2] (setting [4]), 0.0021 µM.

Consider `CC1CCCN1c1nc(C(C)(C)C)nc2c1nnn2Cc1ccccc1Cl` (stereo not drawn) [Example 30, 5-tert-Butyl-3-(2-chloro-benzyl)-7-(2-methyl-pyrrolidin-1-yl)-3H-[1,2,3]triazolo[4,5-d]pyrimidine], for which the EC50 was more than 10 µM in assay [1] (setting [3]) and 0.0269 µM in assay [2] (setting [4]).

`CC(C)(C)c1nc(N2CCC(F)(F)C2)c2nnn(Cc3ccc(Cl)cc3)c2n1` [Example 66, 5-tert-Butyl-3-(4-chloro-benzyl)-7-(3,3-difluoro-pyrrolidin-1-yl)-3H-[1,2,3]triazolo[4,5-d]pyrimidine]: the EC50 was more than 10 µM in assay [1] (setting [3]) and 0.002 µM in assay [2] (setting [4]).

Regarding `CN(C)c1c(Cl)cncc1Cn1nnc2c(N3CCC(F)(F)C3)nc(C(C)(C)C)nc21` [Example 134, {3-[5-tert-Butyl-7-(3,3-difluoro-pyrrolidin-1-yl)-[1,2,3]triazolo[4,5-d]pyrimidin-3-ylmethyl]-5-chloro-pyridin-4-yl}-dimethyl-amine], the EC50 in assay [1] (setting [3]) stood at 0.234 µM; in assay [2] (setting [4]), 0.0003 µM.

Consider `CC(C)(C)c1nc(N2CCC(F)(F)C2)c2nnn(Cc3ccccn3)c2n1` [Example 73, 5-tert-Butyl-7-(3,3-difluoro-pyrrolidin-1-yl)-3-pyridin-2-ylmethyl-3H-[1,2,3]triazolo[4,5-d]pyrimidine], for which the half-maximal effective concentration (EC50) in assay [1] (setting [3]) is 0.0609 µM; in assay [2] (setting [4]), 0.0001 µM.
